{
  "source": "patent US20090176817A1",
  "about": "“Method of Treatment of Diarrhea-Predominant Irritable Bowel Syndrome in a Subject” (priority 2005, published 2009)",
  "key": {"clinical [1]": {"assay": "clinical", "settings": "human, in vivo, po", "experimental": "Two randomized, double-blind, placebo controlled, rising dose, crossover studies evaluated the single-dose pharmacokinetics of oral cilansetron over a 4 mg to 64 mg dose range. In one study, 24 male subjects (aged 21-36 years) received, at intervals of […], single oral doses of 4, 8, and 16 mg cilansetron in ascending order and a randomized placebo. In the other study, 24 male subjects received, at intervals of ≧1 week, single oral doses of 16, 32, and 64 mg cilansetron in ascending order and a randomized placebo. All doses were administered under fasted conditions. […] Renal excretion of cilansetron was negligible across all doses, with undetectable or very low amounts (<1% of the dose) excreted unchanged in urine.\nData for the evaluation of dose proportionality of oral cilansetron is available from three studies which have evaluated the pharmacokinetics of single doses over a 2 mg to 64 mg dose range. Two randomized, double-blind, placebo controlled, rising dose, crossover studies, in 24 male subjects each, evaluated the single dose pharmacokinetics of oral cilansetron (capsules) over a 4-16 mg and 16-64 mg dose range, respectively. In each study, subjects received, at intervals of ≧1 week, single oral doses of cilansetron in ascending order and a randomized placebo. All doses were administered under fasted conditions. A third open-label, randomized, parallel-group study in 36 male and female subjects, evaluated the single dose pharmacokinetics of a cilansetron 2 mg tablet administered under fed conditions. FIG. 16 to FIG. 19 present box plots of cilansetron AUC(0-inf) and Cmax from these three studies (males only), and corresponding dose-normalized values (normalized to a 1 mg dose). […] Table 2.7.2.3.14 presents descriptive statistics of cilansetron dose-normalized AUC and Cmax in these studies, and the results of statistical comparisons between doses."}, "clinical [2]": {"assay": "clinical", "settings": "human, in vivo", "experimental": "The single- and multiple-dose pharmacokinetics of cilansetron at oral doses of 4 mg and 8 mg were evaluated in a randomized, double-blind, placebo controlled, parallel group study in 32 male subjects (14 subjects received 4 mg cilansetron, 14 received 8 mg cilansetron, and 4 received placebo). Subjects received a single dose of cilansetron at their assigned dose on the first day of the study (Day 1), followed by a 7-day washout, after which they received cilansetron TID at their assigned dose for 6 days and a single dose on the morning of the seventh day (Day 14). Morning doses on all days were administered under fasted conditions. […] Renal excretion of cilansetron was negligible following single and multiple dosing at both doses, with less than 1% of the dose excreted unchanged in urine."}, "clinical [3]": {"assay": "clinical", "settings": "human, in vivo", "remark": "listed apart in the source", "method": "Two randomized, double-blind, placebo controlled, balanced incomplete block design, crossover studies evaluated the single- and multiple-dose pharmacokinetics of oral cilansetron over a 8 mg to 32 mg dose range. In both studies, subjects were randomized to receive two of three treatments during 2 treatment periods. In one study (12 male and 13 female subjects, aged 23 to 36 years), subjects received 8 mg cilansetron, 16 mg cilansetron, or placebo, while in another study (12 males and 13 females, aged 23 to 41 years), subjects received 16 mg cilansetron, 32 mg cilansetron, or placebo. During each treatment period, subjects received a single dose of their assigned treatment on the first day, followed by a 3-day washout, after which they received the same treatment TID for 5 days.\nThere was a 5-6 day washout period between treatment periods. Doses on the mornings of pharmacokinetic days were administered under fasted conditions. Serial blood sampling and urine collection was performed up to 12 hours following morning dosing on the first day (single dose) and on the last multiple dosing day of each treatment period, and cilansetron pharmacokinetic parameters were evaluated.\nIn two randomized, double-blind, placebo controlled, balanced incomplete block design, crossover studies evaluating the single- and multiple-dose pharmacokinetics of oral cilansetron over a 8 mg to 32 mg dose range, subjects were randomized to receive two of three treatments during 2 treatment periods. In Study S.241.1.101; (12 male and 13 female subjects, aged 23 to 36 years), subjects received 8 mg cilansetron, 16 mg cilansetron, or placebo, while in Study S.24 1.1.102; (12 males and 13 females, aged 23 to 41 years), subjects received 16 mg cilansetron, 32 mg cilansetron, or placebo. During each treatment period, subjects received a single dose of their assigned treatment on the first day, followed by a 3-day washout, after which they received the same treatment TID for 5 days. There was a 5-6 day washout period between treatment periods. Doses on the mornings of pharmacokinetic days were administered under fasted conditions. Serial blood sampling and urine collection was performed up to 12 hours following morning dosing on the first day (single dose) and on the last multiple dosing day of each treatment period, and cilansetron pharmacokinetic parameters were evaluated."}},
  "data": [
    {"smiles": "Cc1nccn1C[C@H]1CCc2c(c3cccc4c3n2CCC4)C1=O", "note": "[Cilansetron, (R)-(−)-4,5,6,8,9,10-hexahydro-10-[(2-methyl-1H-imidazol-1-yl)methyl]-11H-pyrido-[3,2,1-jk]-carbazol-11-one]", "values": [
      {"measurement": "CL/F", "setting": "clinical [1]; 32 mg", "result": "2487 (79) mL/min"},
      {"measurement": "CL/F", "setting": "clinical [1]; 64 mg", "result": "1910 (60) mL/min"},
      {"measurement": "DN-AUC(0-inf) ratio 32 mg/16 mg", "setting": "clinical [1]; male", "result": 127, "unit": "%"},
      {"measurement": "DN-AUC(0-inf) ratio 64 mg/16 mg", "setting": "clinical [1]; male", "result": 158, "unit": "%"},
      {"measurement": "DN-AUC(0-inf) ratio 64 mg/32 mg", "setting": "clinical [1]; male", "result": 125, "unit": "%"},
      {"measurement": "DN-AUC(0-last) ratio 32 mg/16 mg", "setting": "clinical [1]; male", "result": 132, "unit": "%"},
      {"measurement": "DN-AUC(0-last) ratio 64 mg/16 mg", "setting": "clinical [1]; male", "result": 168, "unit": "%"},
      {"measurement": "DN-AUC(0-last) ratio 64 mg/32 mg", "setting": "clinical [1]; male", "result": 127, "unit": "%"},
      {"measurement": "DN-Cmax ratio 32 mg/16 mg", "setting": "clinical [1]; male", "result": 127, "unit": "%"},
      {"measurement": "DN-Cmax ratio 64 mg/16 mg", "setting": "clinical [1]; male", "result": 164, "unit": "%"},
      {"measurement": "DN-Cmax ratio 64 mg/32 mg", "setting": "clinical [1]; male", "result": 129, "unit": "%"},
      {"measurement": "CL renal", "setting": "clinical [1]; male, 16 mg", "result": 3.39, "unit": "mL/min"},
      {"measurement": "Tmax", "setting": "clinical [1]; male, 16 mg", "result": 1, "unit": "h"},
      {"measurement": "AUC(0-inf)", "setting": "clinical [1]; male, 32 mg", "result": 330, "unit": "ng·h/mL"},
      {"measurement": "AUC(0-t)", "setting": "clinical [1]; male, 32 mg", "result": 324, "unit": "ng·h/mL"},
      {"measurement": "CL renal", "setting": "clinical [1]; male, 32 mg", "result": 5, "unit": "mL/min"},
      {"measurement": "Cmax", "setting": "clinical [1]; male, 32 mg", "result": 143, "unit": "ng/mL"},
      {"measurement": "Tmax", "setting": "clinical [1]; male, 32 mg", "result": 1, "unit": "h"},
      {"measurement": "Vd/F", "setting": "clinical [1]; male, 32 mg", "result": 269, "unit": "L"},
      {"measurement": "half-life", "setting": "clinical [1]; male, 32 mg", "result": 1.28, "unit": "h"},
      {"measurement": "AUC(0-inf)", "setting": "clinical [1]; male, 64 mg", "result": 813, "unit": "ng·h/mL"},
      {"measurement": "AUC(0-t)", "setting": "clinical [1]; male, 64 mg", "result": 807, "unit": "ng·h/mL"},
      {"measurement": "CL renal", "setting": "clinical [1]; male, 64 mg", "result": 4.5, "unit": "mL/min"},
      {"measurement": "Cmax", "setting": "clinical [1]; male, 64 mg", "result": 349, "unit": "ng/mL"},
      {"measurement": "Tmax", "setting": "clinical [1]; male, 64 mg", "result": 1, "unit": "h"},
      {"measurement": "Vd/F", "setting": "clinical [1]; male, 64 mg", "result": 204, "unit": "L"},
      {"measurement": "half-life", "setting": "clinical [1]; male, 64 mg", "result": 1.3, "unit": "h"},
      {"measurement": "CL/F", "setting": "clinical [2]; 4 mg", "result": "3226 (51) mL/min"},
      {"measurement": "CL/F", "setting": "clinical [2]; 8 mg", "result": "3559 (62) mL/min"},
      {"measurement": "Dose excreted unchanged in urine", "setting": "clinical [2]; male", "result": "less than 1%"},
      {"measurement": "Intersubject % CV for AUC and Cmax", "setting": "clinical [2]; male", "result": "36-82%"},
      {"measurement": "Intrasubject % CV on AUC", "setting": "clinical [2]; male", "result": "33-55%"},
      {"measurement": "CLr", "setting": "clinical [2]; male, 4 mg", "result": "7.47 (143) mL/min"},
      {"measurement": "DN-AUC", "setting": "clinical [2]; male, 4 mg", "result": "6.08 (36) ng · h/mL"},
      {"measurement": "DN-Cmax", "setting": "clinical [2]; male, 4 mg", "result": "2.21 (37) ng/mL"},
      {"measurement": "Vd/F", "setting": "clinical [2]; male, 4 mg", "result": 406, "unit": "L"},
      {"measurement": "AUC", "setting": "clinical [2]; male, 4 mg", "result": 24.3, "unit": "ng·h/mL"},
      {"measurement": "Cmax", "setting": "clinical [2]; male, 4 mg", "result": 8.83, "unit": "ng/mL"},
      {"measurement": "Tmax", "setting": "clinical [2]; male, 4 mg", "result": 1.38, "unit": "h"},
      {"measurement": "half-life", "setting": "clinical [2]; male, 4 mg, T½", "result": 1.55, "unit": "h"},
      {"measurement": "DN-AUC", "setting": "clinical [2]; male, 8 mg", "result": "6.55 (69) ng · h/mL"},
      {"measurement": "DN-Cmax", "setting": "clinical [2]; male, 8 mg", "result": "2.89 (61) ng/mL"},
      {"measurement": "Vd/F", "setting": "clinical [2]; male, 8 mg", "result": 483, "unit": "L"},
      {"measurement": "AUC", "setting": "clinical [2]; male, 8 mg", "result": 52.4, "unit": "ng·h/mL"},
      {"measurement": "CL renal", "setting": "clinical [2]; male, 8 mg, CLr", "result": 4.68, "unit": "mL/min"},
      {"measurement": "Cmax", "setting": "clinical [2]; male, 8 mg", "result": 23.1, "unit": "ng/mL"},
      {"measurement": "Tmax", "setting": "clinical [2]; male, 8 mg", "result": 1, "unit": "h"},
      {"measurement": "half-life", "setting": "clinical [2]; male, 8 mg, T½", "result": 1.92, "unit": "h"},
      {"measurement": "half-life", "setting": "clinical [2]; male, Mean half-life", "result": "1.6 to 1.9", "unit": "h"},
      {"measurement": "Inhibition of any other cytochrome P450 enzyme activity", "setting": "cytochrome P450 enzymes", "result": "no inhibition"},
      {"measurement": "Tmax", "setting": "clinical [3]; both", "result": 1, "unit": "h"},
      {"measurement": "Tmax", "setting": "clinical [3]; both, 8 mg", "result": 1, "unit": "h"},
      {"measurement": "AUC", "setting": "clinical [3]; both, 8 mg", "result": 112, "unit": "ng·h/mL"},
      {"measurement": "Cmax", "setting": "clinical [3]; both, 8 mg", "result": 43.3, "unit": "ng/mL"},
      {"measurement": "half-life", "setting": "clinical [3]; both, 8 mg, T½", "result": 1.44, "unit": "h"},
      {"measurement": "half-life", "setting": "clinical [3]; both, 16 mg, T½", "result": 1.3, "unit": "h"},
      {"measurement": "half-life", "setting": "clinical [3]; both, Mean half-life", "result": "1.2 to 1.4", "unit": "h"},
      {"measurement": "Tmax", "setting": "clinical [3]; female, 8 mg", "result": 1, "unit": "h"},
      {"measurement": "AUC", "setting": "clinical [3]; female, 8 mg", "result": 104, "unit": "ng·h/mL"},
      {"measurement": "Cmax", "setting": "clinical [3]; female, 8 mg", "result": 43.2, "unit": "ng/mL"},
      {"measurement": "half-life", "setting": "clinical [3]; female, 8 mg, T½", "result": 1.41, "unit": "h"},
      {"measurement": "Tmax", "setting": "clinical [3]; female, po, 8 mg", "result": 1, "unit": "h"},
      {"measurement": "AUC", "setting": "clinical [3]; female, po, 8 mg", "result": 138, "unit": "ng·h/mL"},
      {"measurement": "Cmax", "setting": "clinical [3]; female, po, 8 mg", "result": 52.2, "unit": "ng/mL"},
      {"measurement": "half-life", "setting": "clinical [3]; female, po, 8 mg, T½", "result": 1.45, "unit": "h"},
      {"measurement": "Tmax", "setting": "clinical [3]; female, po, 16 mg", "result": 1, "unit": "h"},
      {"measurement": "Tmax", "setting": "clinical [3]; male, 8 mg", "result": 1, "unit": "h"},
      {"measurement": "AUC", "setting": "clinical [3]; male, 8 mg", "result": 74.5, "unit": "ng·h/mL"},
      {"measurement": "Cmax", "setting": "clinical [3]; male, 8 mg", "result": 35.8, "unit": "ng/mL"},
      {"measurement": "half-life", "setting": "clinical [3]; male, 8 mg, T½", "result": 1.22, "unit": "h"},
      {"measurement": "Tmax", "setting": "clinical [3]; male, po, 8 mg", "result": 1, "unit": "h"},
      {"measurement": "AUC", "setting": "clinical [3]; male, po, 8 mg", "result": 89.9, "unit": "ng·h/mL"},
      {"measurement": "Cmax", "setting": "clinical [3]; male, po, 8 mg", "result": 35.5, "unit": "ng/mL"},
      {"measurement": "half-life", "setting": "clinical [3]; male, po, 8 mg, T½", "result": 1.44, "unit": "h"},
      {"measurement": "Tmax", "setting": "clinical [3]; male, po, 16 mg", "result": 1, "unit": "h"}
    ]}
  ]
}
